The experiment concerns the target 229E Mpro (Human coronavirus 229E (HCoV-229E), UniProt P0C6X1). Briefly: 229E Mpro activity. To be noted: read-out: 229E Mpro EC50. Type of experiment: biochemical.
Chain of 229E Mpro (P0C6X1 2966-3267 limits assumed): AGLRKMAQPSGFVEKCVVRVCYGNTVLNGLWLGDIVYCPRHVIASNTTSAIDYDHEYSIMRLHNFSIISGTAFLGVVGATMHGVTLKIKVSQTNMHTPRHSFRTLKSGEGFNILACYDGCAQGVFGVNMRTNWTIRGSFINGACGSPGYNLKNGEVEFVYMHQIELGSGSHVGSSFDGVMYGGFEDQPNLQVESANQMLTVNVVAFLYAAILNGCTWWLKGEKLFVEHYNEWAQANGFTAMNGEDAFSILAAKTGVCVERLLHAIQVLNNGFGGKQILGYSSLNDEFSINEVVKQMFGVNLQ
Procedure: Compounds are assayed using standard methods to assess compound activity and IC50. […] The assay buffer contains 20 mM of Tris-HCl (pH 7.3), 100 mM of NaCl, 1 mM of EDTA, 5mM of TCEP and 0.1% BSA.
As usually defined, the EC50 is the concentration at which the effect is half-maximal. Turning to `COc1cccc2[nH]c(C(=O)N[C@@H](CC(C)C)C(=O)N[C@@H](C[C@@H]3CCNC3=O)C3OC(=O)N(C(C)C)C3=N)cc12` (stereo partly drawn) [Compound 357, N-((2S)-1-(((1S)-1-(4-imino-3-isopropyl-2-oxooxazolidin-5-yl)-2-((S)-2-oxopyrrolidin-3-yl)ethyl)amino)-4-methyl-1-oxopentan-2-yl)-4-methoxy-1H-indole-2-carboxamide], the EC50 was > 30 µM.

Take `COc1cccc2[nH]c(C(=O)N[C@@H](CC(C)C)C(=O)N[C@@H](C[C@@H]3CCNC3=O)C3OC(=O)N(c4ccccc4)C3=N)cc12` (stereo partly drawn) [Compound 359, N-[(1S)-1-[[(1S)-1-(4-imino-2-oxo-3-phenyl-oxazolidin-5-yl)-2-[(3S)-2-oxopyrrolidin-3-yl]ethyl]carbamoyl]-3-methyl-butyl]-4-methoxy-1H-indole-2-carboxamide]: the half-maximal effective concentration (EC50) lay within 10 to 30 µM.

Take `COc1cccc2[nH]c(C(=O)N3CC4(CCOCC4)C[C@H]3C(=O)N[C@H](C#N)C[C@@H]3CCNC3=O)cc12` [Compound 387, N-((S)-1-cyano-2-((S)-2-oxopyrrolidin-3-yl)ethyl)-2-(4-methoxy-1H-indole-2-carbonyl)-8-oxa-2-azaspiro[4.5]decane-3-carboxamide]: the EC50 was > 30 µM.

With `CC[C@H]1CN(C(=O)c2cc3c(OC)cccc3[nH]2)[C@@H]1C(=O)N[C@H](C#N)C[C@@H]1CCNC1=O` [Compound 391, (2S,3S)-N-((S)-1-cyano-2-((S)-2-oxopyrrolidin-3-yl)ethyl)-3-ethyl-1-(4-methoxy-1H-indole-2-carbonyl)azetidine-2-carboxamide], the concentration giving a half-maximal response (EC50) is > 30 µM.

`COc1cccc2[nH]c(C(=O)N3C[C@H](OC)C[C@H]3C(=O)N[C@H](C#N)C[C@@H]3CCNC3=O)cc12` [Compound 407]: the EC50 is < 2 µM.

`CCO[C@@H]1C[C@@H](C(=O)N[C@H](C#N)C[C@@H]2CCNC2=O)N(C(=O)c2cc3c(OC)cccc3[nH]2)C1` [Compound 409, (2S,4R)-N-[(1S)-1-cyano-2-[(3S)-2-oxopyrrolidin-3-yl]ethyl]-4-ethoxy-1-(4-methoxy-1H-indole-2-carbonyl)pyrrolidine-2-carboxamide]: the concentration giving a half-maximal response (EC50) was > 30 µM.

With `N#C[C@H](C[C@@H]1CCNC1=O)NC(=O)[C@@H]1CS[C@H]2CC[C@H](NC(=O)OCc3ccccc3)C(=O)N21` [Compound 457, Benzyl((3R,6S,8aS)-3-(((S)-1-cyano-2-((S)-2-oxopyrrolidin-3-yl)ethyl)carbamoyl)-5-oxohexahydro-2H-thiazolo[3,2-a]pyridin-6-yl)carbamate], the EC50 was > 30 µM.

Turning to `Cc1cc(C(=O)N[C@H]2CC[C@@H]3SC[C@@H](C(=O)N[C@H](C#N)C[C@@H]4CCNC4=O)N3C2=O)no1` [Compound 459, N-((3R,6S,8aS)-3-(((S)-1-cyano-2-((S)-2-oxopyrrolidin-3-yl)ethyl)carbamoyl)-5-oxohexahydro-2H-thiazolo[3,2-a]pyridin-6-yl)-5-methylisoxazole-3-carboxamide], the EC50 is > 30 µM.

Consider `N#C[C@H](C[C@@H]1CCNC1=O)NC(=O)[C@H](CC1CC1)N1CCC2(CCCN2)C1=O` (stereo partly drawn) [Compound 471, N-[(1S)-1-cyano-2-[(3S)-2-oxopyrrolidin-3-yl]ethyl]-3-cyclopropyl-2-(6-oxo-1,7-diazaspiro[4.4]nonan-7-yl)propanamide], for which the EC50 fell in the range of 10 to 30 µM.

As for `N#C[C@H](C[C@@H]1CCNC1=O)NC(=O)[C@@H]1CS[C@H]2CC[C@H](N)C(=O)N21` [Compound 479, (3R,6S)-6-amino-N-[(1S)-1-cyano-2-[(3S)-2-oxopyrrolidin-3-yl]ethyl]-5-oxo-2,3,6,7,8,8a-hexahydrothiazolo[3,2-a]pyridine-3-carboxamide], the concentration for a half-maximal effect (EC50) lay within 10 to 30 µM.

As for `N#C[C@H](C[C@@H]1CCNC1=O)NC(=O)[C@@H]1CCc2ccc(NCC(=O)Oc3ccccc3)c(=O)n21` [Compound 483, phenyl 2-[[(3S)-3-[[(1S)-1-cyano-2-[(3S)-2-oxopyrrolidin-3-yl]ethyl]carbamoyl]-5-oxo-2,3-dihydro-1H-indolizin-6-yl]amino]acetate], the half-maximal effective concentration (EC50) is > 30 µM.

With `COc1cccc2[nH]c(C(=O)N[C@@H](CC3CC3)C(=O)N[C@@H](C#N)C[C@@H]3CCCNC3=O)cc12` [Compound 491B], the EC50 lay within 10 to 30 µM.

With `COc1cccc2[nH]c(C(=O)N[C@H](C(=O)N[C@H](C#N)C[C@@H]3CCNC3=O)C3CC4CC4C3)cc12` (stereo partly shown) [Compound 499], the EC50 was < 2 µM.

As for `N#C[C@H](C[C@@H]1CCNC1=O)NC(=O)[C@H](CC1CC1)NC(=O)c1cc2c(OCCN3CCOCC3)cccc2[nH]1` [Compound 515, N-[(1S)-2-[[(1S)-1-cyano-2-[(3S)-2-oxopyrrolidin-3-yl]ethyl]amino]-1-(cyclopropylmethyl)-2-oxo-ethyl]-4-(2-morpholinoethoxy)-1H-indole-2-carboxamide], the EC50 is < 2 µM.

`N#C[C@H](C[C@@H]1CCNC1=O)NC(=O)[C@H](CC1CC1)NC(=O)c1nc2c(Cl)cc(Cl)cc2[nH]1` [Compound 525, 4,6-dichloro-N-[(1S)-2-[[(1S)-1-cyano-2-[(3S)-2-oxopyrrolidin-3-yl]ethyl]amino]-1-(cyclopropylmethyl)-2-oxo-ethyl]-1H-benzimidazole-2-carboxamide]: the EC50 is < 2 µM.

As for `N#C[C@H](C[C@@H]1CCNC1=O)NC(=O)[C@H](CC1CC1)NC(=O)c1cc2ccc(Cl)cc2[nH]1` [Compound 529, 6-chloro-N-[(1S)-2-[[(1S)-1-cyano-2-[(3S)-2-oxopyrrolidin-3-yl]ethyl]amino]-1-(cyclopropylmethyl)-2-oxo-ethyl]-1H-indole-2-carboxamide], the EC50 is < 2 µM.

Take `CCO[C@@H]1C[C@@H](C(=O)N[C@H](C#N)C[C@@H]2CCNC2=O)N(C(=O)c2cc3c(OC)cccc3[nH]2)C1` [Compound 535]: the EC50 was > 30 µM.

`COc1cccc2[nH]c(C(=O)N3C[C@H](C(F)(F)F)C[C@H]3C(=O)N[C@H](C#N)C[C@@H]3CCNC3=O)cc12` [Compound 549, (2S,4R)-N-[(1S)-1-cyano-2-[(3S)-2-oxopyrrolidin-3-yl]ethyl]-1-(4-methoxy-1H-indole-2-carbonyl)-4-(trifluoromethyl)pyrrolidine-2-carboxamide]: the EC50 was < 2 µM.

Take `COc1cccc2[nH]c(C(=O)N3C[C@H](SC)C[C@H]3C(=O)N[C@H](C#N)C[C@@H]3CCNC3=O)cc12` [Compound 551, (2S,4R)-N-[(1S)-1-cyano-2-[(3S)-2-oxopyrrolidin-3-yl]ethyl]-1-(4-methoxy-1H-indole-2-carbonyl)-4-methylsulfanyl-pyrrolidine-2-carboxamide]: the EC50 was < 2 µM.

As for `CCCNC(=O)OC(C#N)[C@H](C[C@@H]1CCNC1=O)NC(=O)[C@H](CC(C)C)NC(=O)c1cc2c(OC)cccc2[nH]1` (stereo partly shown) [Compound 581], the concentration for a half-maximal effect (EC50) was > 30 µM.

As for `COc1cccc2[nH]c(C(=O)N[C@@H](CC(C)C)C(=O)N[C@@H](C[C@@H]3CCNC3=O)C(C#N)OC(=O)NC(C)C)cc12` (stereo partly shown) [Compound 583], the 50% effective concentration (EC50) was > 30 µM.

`COc1cccc2[nH]c(C(=O)N3C[C@H](c4ccccc4)C[C@H]3C(=O)N[C@H](C#N)C[C@@H]3CCCNC3=O)cc12` [Compound 611, (2S,4S)-N-[(1S)-1-cyano-2-[(3S)-2-oxo-3-piperidyl]ethyl]-1-(4-methoxy-1H-indole-2-carbonyl)-4-phenyl-pyrrolidine-2-carboxamide]: the EC50 is < 2 µM.

These data come from patent publication US11524940B1, “Inhibitors of cysteine proteases and methods of use thereof” (priority 2020, dated 2022).
